Reference: patent publication US20090163436A1, “METHODS FOR DELIVERY OF NUCLEIC ACIDS” (Nucleonics, Inc., priority 2002, published 2009)
Where two headings read alike, the source gives them in different places.

How the values were obtained:
[1] = test system: cells derived from the spleen; conditions: IV administration, separate study
Experimental: The complexes are prepared as described above except that 5 mM citrate and 150 mM NaCl are used as buffer. To determine the transfection efficiency, the spleen is removed from mice on day 5. Cells are recovered by crushing the spleen on a slide and observing EGFP fluorescence by fluorescent microscopy. The cell type is identified by cross-staining staining the preparation with labeled MAC1 antibody (macrophage identification) or labeled mannosylated BSA (identification of mannose receptor containing cells) (Current Protocols in Immunology).
In the study evaluating the distribution and blood clearance of DNA following an IV administration, labeled DNA is separately complexed with modified spermines (only monocomplexes of any one spermine is used in this study). Mannose (mono and bis) and lactose (mono and tri) spermines are used separately in these complexes. Unmodified spermine and spermidine complexes with DNA serve as controls.

[2] = Example 3: tissue distribution of labeled DNA after IV administration; conditions: for total amount of CPMs in all of the organs combined, rank order: 5 days following IV, lung, heart, kidney, spleen, liver
Experimental: (§1) DNA is complexed with spermines as described in the previous two examples at the optimal charge ratio of 0.8 with either the monolactosyl, trilactosyl, or mannosyl (mono and bis) spermine to achieve a final DNA concentration of 1.0 mg/mL in citrate buffer at 5 mM and 150 mM NaCl.
(§2) The mice, 5 per group, are injected intravenously through the tail vein (100 uL). Mice are sacrificed at various times as indicated for serum analysis of plasmid DNA to determine blood clearance. To determine the amount of plasmid in blood, one mL of serum is placed in liquid scintillation counters with fluor to quantify the CPMs associated with each sample. In order to determine tissue distribution, various organs are harvested on day 5 (peak of expression from previous studies) and snap frozen. Whole organs from the animals are harvested livers from 3 animals in the group of 5 are ground in mild alkali (100 mM KOH) and neutralized with acid (HCl) prior to scintillation counting. Livers from the remaining two animals are embedded in paraffin and sectioned as described in Example 2 and stained for betagalactosidase activity, as described.
(§3) In the second part of the study, distribution of DNA amongst some of the major organs is evaluated 5 days following IV administration. A simple tissue grind and scintillation counting is carried out. The organs chosen (lung, heart, kidney, spleen, and liver) for analysis represent the major capillary beds.

[3] = Example 3: blood clearance of 14C-labeled plasmid DNA after IV administration
Experimental: Bacteria containing the beta-galactosidase expression plasmid are grown in minimal M9 media (Miller, CSHS laboratory Press) in glucose as the sole carbon source overnight. The cells are washed in minimal media thrice through centrifugation and resuspension in M9 media without the carbon source, and resuspended in M9 with uniformally 14C-labeled ribose (NEN, MA) and deoxynucleosides (NEN, MA) for 3 hours. The cells are harvested, and the plasmid is isolated using Qiagen miniprep columns (Qiagen, Inc., CA). The labeled plasmid is mixed with unlabeled plasmid to achieve a specific activity of 3 million CPM per 100 ug plasmid.
as §1
The mice, 5 per group, are injected intravenously through the tail vein (100 uL). Mice are sacrificed at various times as indicated for serum analysis of plasmid DNA to determine blood clearance. To determine the amount of plasmid in blood, one mL of serum is placed in liquid scintillation counters with fluor to quantify the CPMs associated with each sample. […]

[4] = Example 4: oral delivery of luciferase plasmid microemulsions
Experimental: The objective is to develop microemulsion (ME) formulations designed for oral delivery of DNA. Microemulsions for oral delivery are prepared using a mixture that contains DNA or other nucleic acids (2.0 mg/mL in, e.g., 30 mM citrate, 150 mM NaCl pH 6.8 buffer) and benzalkonium chloride (0.1%). The mixture is further mixed in equal volumes to a mixture that contains seven parts of Labrasol™ (Gattefosse, Saint-Priest Cedex, France), one part of Lauroglycol (polypropylene esters such as Lauroglycol FCC for oral administration from Gattefosse, France) and two parts of ethanol. Other formulations contain bupivacaine at 0.25%, octyl spermine at 2.0 mg/mL, or cholesteryl spermine at 2.0 mg/mL, instead of benzalkonium chloride and lauroglycol in the above formulation. […] The DNA tested is an expression plasmid for luciferase (Promega Corp.). […] The formulation (100 uL) containing DNA is fed to mice (5 in one formulation group) by intubating the stomach. Five days following administration, several organs including kidney, liver, lung, intestinal segments (ileum, duodenum, small intestine and large intestine), brain, heart, and spleen are harvested and snap frozen. The tissues are homogenized in luciferase buffer (Promega Corp., Madison, Wis.) using a polytron. Luciferase activity is determined using a luminometer (Berthold) and in the assay buffer (Promega Corp., Madison, Wis.).

[5] = Example 4: phase location of DNA in cationic amphiphile emulsions; assay type: physicochemical; conditions: formulation containing the named cationic amphiphile
[6] = In vivo transfection with local anesthetic complexed DNA versus naked DNA; conditions: IL12 DNA complexed with 0.25% bupivacaine
From the text: As compared to cationic lipids, simple structures derived from water-soluble amphiphiles have a higher probability of forming transfecting structures that are uniform and homogenous, which is expected to result in increased efficiency, predictability, and potency. We selected cationic amphiphiles that are membrane active, such as the local anesthetics, e.g., bupivacaine (see U.S. Pat. No. 6,383,512, “Vesicular complexes and methods of making and using the same,” which describes compositions comprising lamellar vesicles that comprise a local anesthetic, e.g., bupivacaine, and a nucleic acid molecule). In particular, this reference describes compositions and methods for delivery of nucleic acid molecules that are antisense, ribozyme, or triplex forming nucleic acid molecules, as well as nucleic acid molecules that encode proteins (e.g., non-immunogenic therapeutically effective proteins, and immunogenic proteins designed to elicit a desired immune response in a host). Experiments were carried out to determine whether such vesicular complexes could be used to deliver dsRNA expression constructs capable of eliciting RNAi. […] Additionally, these are currently used in humans, and their toxicity/dose profiles are well characterized. In contrast, the associated toxicity of lipids that transfect efficiently in vitro may preclude their use in vivo. […]

[7] = test system: liver cells (hepatocytes, Kupfer cells); conditions: IV; for liver cell type transfected: betagal staining of liver slices
Experimental: The mixture is injected intravenously (100 uL) of 5 mice for each formulation variant. Formulations variants included different charge ratios and various lactosyl spermine to cholesteryl spermine ratios. At 5 days postinjection, when in vivo plasmid expression peaks, the mice are sacrificed, and their livers are removed and snap frozen for histological analysis. Several slices of the liver tissue both near and farther from the major blood vessels and the bile ducts are embedded into paraffin and sectioned using a microtome. The tissue slices are stained using X-gal (an enzymatic substrate for betagalactosidase). The liver tissue slices are stained using labeled lactosylated BSA, as a cross stain to identify hepatocytes (asialoglycoprotein receptor). The slides are viewed under an UV fluoroscent microscope to detect the label fluorescence, and the betgal stain is observed under light microscopy. Control mice are administered “naked” DNA free of added complexing agents and DNA complexed with either lactosyl spermine or cholesteryl spermine, but not both.

[8] = test system: peritoneal cells (macrophages, dendritic cells)
Experimental: Peritoneal fluid was isolated from mice. Plasmid DNA designed to express the green fluorescent protein (GFP) in mammalian cells was complexed with a mixture of the two spermines, mannosyl-mannosyl-spermine and cholesteryl spermine, at different ratios. The complexes were applied to peritoneal cells in culture. The fluorescence intensity of the cells were recorded. The complexes that were prepared for the ex vivo study were injected into the peritoneal cavity of mice. Four and five days following the injection, the cells were collected from the peritoneal cavity and spun down on slides and their ability to fluoresce was determined. The fluorescence intensities were recorded visually.
Labeled antibodies to defined cell surface markers were used to identify the cell type.

[9] = mouse, in vivo, iv
Experimental: as §1, §2, §3

[10] = test system: IL-12 p40; assay: Example 5: serum IL-12 p40 ELISA after intramuscular IL-12 plasmid in Balb/C mice; conditions: mouse, in vivo
Experimental: Expression of the murine IL-12 transgenes was achieved through the use of vectors containing the HCMV IE promoter and SV40 polyadenation signal. ELISA of serum IL-12 p40 levels affords a facile system to analyze expression levels and the effectiveness of the administered DNA. p40 is one of the two polypeptide chains comprising IL-12.
In all of the RNAi studies described here using IL12 DNA (IL12, dsRNA producing vector and vector encoding T7 RNA polymerase), IL12 DNA was administered as a complex with bupivacaine, a local anesthetic, since higher in vivo transfection efficiencies (˜3×) are achieved with this complex over those mediated by naked DNA. […]
In another set of experiments, murine IL-12 p40 expression in sera was monitored in mice following intramuscular injection of a 100 ug dose of murine IL-12 expression plasmids or in naïve mouse controls that were not injected. […]
Murine IL-12 p40 serum expression was monitored following intramuscular injection of 100 ug IL-12 expression plasmids in mice injected at days 0 and 150 or in mice injected only at day 150. […]

Q: For `CC(=O)O.CC(=O)O.CC(=O)O.CC(=O)O.NCCCN(CCCCCNC(=O)CCS[C@H]1O[C@H](CO)[C@@H](O)[C@H](O)[C@@H]1O)CCCCN(CCCN)CCCCCNC(=O)CCS[C@H]1O[C@H](CO)[C@@H](O)[C@H](O)[C@@H]1O` [bismannosyl spermine, N^4,N^8-bis (5-N-(α-3′-propionamido thiomannoside)pentyl)-spermine tetraacetate], which “cells taking up the complexes” value [1] is on record?
A: The value was “taken up exclusively by cells of the macrophage and dendritic cell lineages”.

Q: What about the “total amount of CPMs in all of the organs combined, rank order” value [2] of the same molecule?
A: The value was “trilactosyl>monolactosyl≅bismannosyl≅monomannosyl>>>controls”.

Q: What about the “blood clearance slower than trilactosyl spermine complexes” value ([3]; DNA monocomplex) of the same molecule?
A: The value was 50-100 times.

Q: And the “blood clearance of DNA” value ([3]; DNA monocomplex with the named spermine, charge ratio 0.8)?
A: The value was “rapid clearance”.

Q: With `CCCCN1CCCCC1C(=O)Nc1c(C)cccc1C` (centres unmarked) [bupivacaine, reference compound] as the molecule, how does the “systemic absorption of DNA” value ([4]; mouse, in vivo, po) read?
A: The value was “Maximal systemic absorption”.

Q: And the “phase of the oil in water emulsion that holds the DNA” value (“phase of the oil” below) [5]?
A: Its value is “in the oil phase”.

Q: What about the “in vivo transfection efficiency over naked DNA” value [6] of the same molecule?
A: Its value is roughly 3 ×.

Q: With `CC(C)CCC[C@@H](C)[C@H]1CC[C@H]2[C@@H]3CC=C4C[C@@H](OC(=O)NCCCCCN(CCCN)CCCCNCCCN)CC[C@]4(C)[C@H]3CC[C@]12C.Cl` [cholesteryl spermine, N^4-(5-N-(3β-O-carbamoyl-5-cholestene)-1-pentyl)-spermine Hydrochloride] as the molecule, how does the “systemic absorption of DNA” value ([4]; oral microemulsion containing the named cationic amphiphile) read?
A: Its value is “Maximal systemic absorption”.

Q: And the “phase of the oil” value [5]?
A: The value was “in the oil phase”.

Q: Which “total amount of CPMs in all of the organs combined, rank order” value [2] does the source give for “N^4-(5-(trilactosyllysyllysyl) amidopentyl spermine triacetate [trilactosyl spermine]” here?
A: The value was “trilactosyl>monolactosyl≅bismannosyl≅monomannosyl>>>controls”.

Q: With benzalkonium chloride as the molecule, how does the “systemic absorption of DNA” value ([4]; mouse, in vivo, po) read?
A: The value was “Maximal systemic absorption”.

Q: What about the “phase of the oil” value [5] of the same molecule?
A: The value was “in the oil phase”.

Q: Which “liver cell type transfected” value [7] does the source give for lactosyl spermine here?
A: The value was “primarily transfect hepatocytes”.

Q: What about the “DNA internalization, cell type” value ([7]; liver sections, day 5) of the same molecule?
A: The value was “exclusively into hepatocytes”.

Q: And the betagalactosidase expression ([7]; liver sections, no cholesteryl spermine in complex)?
A: Its betagalactosidase expression is “poor”.

Q: And the “retention of DNA” value ([2]; IV, DNA monocomplex with modified spermine)?
A: Its value is 30%.

Q: Which “liver cell type transfected” value [7] does the source give for mannosyl spermine here?
A: The value was “transfect Kupfer cells”.

Q: And the “expression from the internalized plasmid” value ([8]; GFP plasmid)?
A: The value was “observed only when cholesteryl spermine was included”.

Q: And the “internalization of labeled DNA particles” value ([8]; all of the tested ratios)?
A: Its value is “internalized”.

Q: And the “retention of DNA” value [9]?
A: The value was 85%.

Q: For octyl spermine, which “systemic absorption of DNA” value ([4]; mouse, in vivo, po) is on record?
A: Its value is “Maximal systemic absorption”.

Q: And the “phase of the oil” value [5]?
A: Its value is “in the oil phase”.

B1: recombinant murine IL-12: recombinant murine IL-12 protein, 50 ug at day 0 (protein, UniProt P43431 23-215; P43432 23-335, looked up)
Interleukin-12 subunit alpha: RVIPVSGPARCLSQSRNLLKTTDDMVKTAREKLKHYSCTAEDIDHEDITRDQTSTLKTCLPLELHKNESCLATRETSSTTRGSCLPPQKTSLMMTLCLGSIYEDLKMYQTEFQAINAALQNHNHQQIILDKGMLVAIDELMQSLNHNGETLRQKPPVGEADPYRVKMKLCILLHAFSTRVVTINRVMGYLSSA
Interleukin-12 subunit beta: MWELEKDVYVVEVDWTPDAPGETVNLTCDTPEEDDITWTSDQRHGVIGSGKTLTITVKEFLDAGQYTCHKGGETLSHSHLLLHKKENGIWSTEILKNFKNKTFLKCEAPNYSGRFTCSWLVQRNMDLKFNIKSSSSSPDSRAVTCGMASLSAEKVTLDQRDYEKYSVSCQEDVTCPTAEETLPIELALEARQQNKYENYSTSFFIRDIIKPDPPKNLQMKPLKNSQVEVSWEYPDSWSTPHSYFSLKFFVRIQRKKEKMKETEEGCNQKGAFLVEKTSTEVQCKGGNVCVQAQDRYYNSSCSKWACVPCRVRS
Q: Which “effect of pre-treatment on IL-12 expression” value [10] does the source give for B1 here?
A: Its value is “does not prevent subsequent expression”.
